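1) Cells in 96-well plates. 2) Compound, 48 h, 5 concentrations. 3) Linear interpolation between surrounding doses. 4) Unreached endpoint = highest concentration. GI50 is the concentration that inhibits growth by half. Definition used: TGI = concentration required for complete inhibition of growth.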 Activity calls are given as the source filed them. Cut-off read from the data, not from the text of the source: active = GI50 below about 0.43 µM; inactive = the rest.
Legend:
Assay in all cases: NCI tumour cell line growth inhibition, 48 h
786-0 renal = system: 786-0 renal
A549 NSCLC = system: A549 NSCLC
ACHN renal = system: ACHN renal
BT-549 breast = system: BT-549 breast
CAKI-1 renal = system: CAKI-1 renal
COLO 205 colon = system: COLO 205 colon
DU-145 prostate = system: DU-145 prostate
EKVX NSCLC = system: EKVX NSCLC
HCC-2998 colon = system: HCC-2998 colon
HCT-116 colon = system: HCT-116 colon
HCT-15 colon = system: HCT-15 colon
HL-60(TB) leukemia = system: HL-60(TB) leukemia
HOP-62 NSCLC = system: HOP-62 NSCLC
HOP-92 NSCLC = system: HOP-92 NSCLC
HS 578T breast = system: HS 578T breast
IGROV1 ovarian = system: IGROV1 ovarian
K-562 leukemia = system: K-562 leukemia
KM12 colon = system: KM12 colon
LOX IMVI melanoma = system: LOX IMVI melanoma
M14 melanoma = system: M14 melanoma
MDA-MB-231 breast = system: MDA-MB-231 breast
MDA-MB-435 = system: MDA-MB-435
NCI-H460 lung = system: NCI-H460 lung
NCI/ADR-RES ovarian = system: NCI/ADR-RES ovarian
OVCAR-3 ovarian = system: OVCAR-3 ovarian
OVCAR-4 ovarian = system: OVCAR-4 ovarian
OVCAR-5 ovarian = system: OVCAR-5 ovarian
OVCAR-8 ovarian = system: OVCAR-8 ovarian
PC-3 prostate = system: PC-3 prostate
RPMI-8226 leukemia = system: RPMI-8226 leukemia
RXF 393 renal = system: RXF 393 renal
SF-295 CNS = system: SF-295 CNS
SK-MEL-2 melanoma = system: SK-MEL-2 melanoma
SK-MEL-28 melanoma = system: SK-MEL-28 melanoma
SK-MEL-5 melanoma = system: SK-MEL-5 melanoma
SK-OV-3 ovarian = system: SK-OV-3 ovarian
SNB-19 CNS = system: SNB-19 CNS
SW-620 colon = system: SW-620 colon
T-47D breast = system: T-47D breast
U251 CNS = system: U251 CNS
UACC-257 melanoma = system: UACC-257 melanoma
UACC-62 melanoma = system: UACC-62 melanoma
UO-31 renal = system: UO-31 renal
A498 renal = system: A498 renal
CCRF-CEM leukemia = system: CCRF-CEM leukemia
MALME-3M melanoma = system: MALME-3M melanoma
MCF7 breast = system: MCF7 breast
MOLT-4 leukemia = system: MOLT-4 leukemia
NCI-H23 lung = system: NCI-H23 lung
NCI-H522 lung = system: NCI-H522 lung
SF-268 CNS = system: SF-268 CNS
SF-539 CNS = system: SF-539 CNS
SN12C renal = system: SN12C renal
SNB-75 CNS = system: SNB-75 CNS
SR leukemia = system: SR leukemia
TK-10 renal = system: TK-10 renal

CC(C)c1ccc2c(c1)CC[C@@H]1[C@@](C)(C(=O)O)CCC[C@]21C
GI50 (786-0 renal): 4.58 µM
TGI (786-0 renal): 17 µM
GI50 (A549 NSCLC): 5.56 µM
TGI (A549 NSCLC): 25 µM
GI50 (ACHN renal): 11.4 µM
TGI (ACHN renal): 23.5 µM
GI50 (BT-549 breast): 1.47 µM
TGI (BT-549 breast): 4.59 µM
GI50 (CAKI-1 renal): 2.93 µM
TGI (CAKI-1 renal): 12 µM
GI50 (COLO 205 colon): 3.23 µM
TGI (COLO 205 colon): 7.83 µM
GI50 (DU-145 prostate): 4.39 µM
TGI (DU-145 prostate): 19.6 µM
GI50 (EKVX NSCLC): 1.82 µM
TGI (EKVX NSCLC): 6.94 µM
GI50 (HCC-2998 colon): 6.07 µM
TGI (HCC-2998 colon): 22.3 µM
GI50 (HCT-116 colon): 6.9 µM
TGI (HCT-116 colon): 19.8 µM
GI50 (HCT-15 colon): 6.38 µM
TGI (HCT-15 colon): 19.6 µM
GI50 (HL-60(TB) leukemia): 3.4 µM
TGI (HL-60(TB) leukemia): 20.9 µM
GI50 (HOP-62 NSCLC): 10.8 µM
TGI (HOP-62 NSCLC): 22.7 µM
GI50 (HOP-92 NSCLC): 20.7 µM
TGI (HOP-92 NSCLC): 76.8 µM
GI50 (HS 578T breast): 3.08 µM
TGI (HS 578T breast): 9 µM
GI50 (IGROV1 ovarian): 5.55 µM
TGI (IGROV1 ovarian): 29 µM
GI50 (K-562 leukemia): 2.5 µM
TGI (K-562 leukemia): 9.2 µM
GI50 (KM12 colon): 5.44 µM
TGI (KM12 colon): 19.5 µM
GI50 (LOX IMVI melanoma): 3.43 µM
TGI (LOX IMVI melanoma): 16.8 µM
GI50 (M14 melanoma): 10.4 µM
TGI (M14 melanoma): 22.1 µM
GI50 (MDA-MB-231 breast): 1.31 µM
TGI (MDA-MB-231 breast): 6.04 µM
GI50 (MDA-MB-435): 10.9 µM
TGI (MDA-MB-435): 29.5 µM
GI50 (NCI-H460 lung): 5.07 µM
TGI (NCI-H460 lung): 18.4 µM
GI50 (NCI/ADR-RES ovarian): 17.8 µM
TGI (NCI/ADR-RES ovarian): 57 µM
GI50 (OVCAR-3 ovarian): 1.8 µM
TGI (OVCAR-3 ovarian): 13.8 µM
GI50 (OVCAR-4 ovarian): 4.23 µM
TGI (OVCAR-4 ovarian): 10.8 µM
GI50 (OVCAR-5 ovarian): 5.49 µM
TGI (OVCAR-5 ovarian): 25.6 µM
GI50 (OVCAR-8 ovarian): 2.16 µM
TGI (OVCAR-8 ovarian): 7.87 µM
GI50 (PC-3 prostate): 7.62 µM
TGI (PC-3 prostate): 82.6 µM
GI50 (RPMI-8226 leukemia): 2.47 µM
TGI (RPMI-8226 leukemia): 6.19 µM
GI50 (RXF 393 renal): 0.0244 µM
TGI (RXF 393 renal): 0.727 µM
GI50 (SF-295 CNS): 3.74 µM
TGI (SF-295 CNS): 17.1 µM
GI50 (SK-MEL-2 melanoma): 2.91 µM
TGI (SK-MEL-2 melanoma): 16.1 µM
GI50 (SK-MEL-28 melanoma): 5.8 µM
TGI (SK-MEL-28 melanoma): 22.3 µM
GI50 (SK-MEL-5 melanoma): 5.02 µM
TGI (SK-MEL-5 melanoma): 16.5 µM
GI50 (SK-OV-3 ovarian): 4.49 µM
TGI (SK-OV-3 ovarian): 21.4 µM
GI50 (SNB-19 CNS): 6.21 µM
TGI (SNB-19 CNS): 18.6 µM
GI50 (SW-620 colon): 10.2 µM
TGI (SW-620 colon): 22.8 µM
GI50 (T-47D breast): 2.39 µM
TGI (T-47D breast): 7.58 µM
GI50 (U251 CNS): 4.54 µM
TGI (U251 CNS): 18.3 µM
GI50 (UACC-257 melanoma): 0.33 µM
TGI (UACC-257 melanoma): 3.86 µM
GI50 (UACC-62 melanoma): 4.87 µM
TGI (UACC-62 melanoma): 18.4 µM
GI50 (UO-31 renal): 2.76 µM
TGI (UO-31 renal): 12 µM

CN1CCN(CCOc2ccc(-c3cnc4c(-c5ccccc5F)cnn4c3)cc2)CC1
GI50 (786-0 renal): 1.78 µM
TGI (786-0 renal): 3.29 µM
GI50 (A498 renal): 1.43 µM
TGI (A498 renal): 2.9 µM
GI50 (ACHN renal): 1.61 µM
TGI (ACHN renal): 2.96 µM
GI50 (BT-549 breast): 1.9 µM
TGI (BT-549 breast): 3.77 µM
GI50 (CAKI-1 renal): 1.56 µM
TGI (CAKI-1 renal): 2.9 µM
GI50 (CCRF-CEM leukemia): 1.85 µM
TGI (CCRF-CEM leukemia): 4.77 µM
GI50 (DU-145 prostate): 1.65 µM
TGI (DU-145 prostate): 3.07 µM
GI50 (EKVX NSCLC): 1.65 µM
TGI (EKVX NSCLC): 3.37 µM
GI50 (HCC-2998 colon): 1.73 µM
TGI (HCC-2998 colon): 3.25 µM
GI50 (HCT-15 colon): 1.25 µM
TGI (HCT-15 colon): 2.63 µM
GI50 (HOP-62 NSCLC): 1.7 µM
TGI (HOP-62 NSCLC): 3.54 µM
GI50 (HOP-92 NSCLC): 1.31 µM
TGI (HOP-92 NSCLC): 3.15 µM
GI50 (HS 578T breast): 2 µM
TGI (HS 578T breast): 5.22 µM
GI50 (IGROV1 ovarian): 1.81 µM
TGI (IGROV1 ovarian): 3.58 µM
GI50 (KM12 colon): 0.647 µM
TGI (KM12 colon): 2.12 µM
GI50 (LOX IMVI melanoma): 1.81 µM
TGI (LOX IMVI melanoma): 3.27 µM
GI50 (M14 melanoma): 1.82 µM
TGI (M14 melanoma): 3.52 µM
GI50 (MALME-3M melanoma): 1.56 µM
TGI (MALME-3M melanoma): 2.95 µM
GI50 (MCF7 breast): 1.32 µM
TGI (MCF7 breast): 2.97 µM
GI50 (MDA-MB-231 breast): 1.54 µM
TGI (MDA-MB-231 breast): 3.08 µM
GI50 (MDA-MB-435): 1.7 µM
TGI (MDA-MB-435): 3.1 µM
GI50 (MOLT-4 leukemia): 1.79 µM
TGI (MOLT-4 leukemia): 4.36 µM
GI50 (NCI-H23 lung): 1.7 µM
TGI (NCI-H23 lung): 3.19 µM
GI50 (NCI-H460 lung): 1.63 µM
TGI (NCI-H460 lung): 3.05 µM
GI50 (NCI-H522 lung): 1.69 µM
TGI (NCI-H522 lung): 3.39 µM
GI50 (NCI/ADR-RES ovarian): 2.4 µM
TGI (NCI/ADR-RES ovarian): 6.42 µM
GI50 (OVCAR-3 ovarian): 1.81 µM
TGI (OVCAR-3 ovarian): 4.02 µM
GI50 (OVCAR-4 ovarian): 1.55 µM
TGI (OVCAR-4 ovarian): 4.49 µM
GI50 (OVCAR-5 ovarian): 1.72 µM
TGI (OVCAR-5 ovarian): 3.23 µM
GI50 (OVCAR-8 ovarian): 2.92 µM
TGI (OVCAR-8 ovarian): 10.6 µM
GI50 (RPMI-8226 leukemia): 1.57 µM
TGI (RPMI-8226 leukemia): 5.44 µM
GI50 (RXF 393 renal): 1.72 µM
TGI (RXF 393 renal): 3.29 µM
GI50 (SF-268 CNS): 2.04 µM
TGI (SF-268 CNS): 4.73 µM
GI50 (SF-295 CNS): 1.76 µM
TGI (SF-295 CNS): 3.2 µM
GI50 (SF-539 CNS): 1.59 µM
TGI (SF-539 CNS): 2.96 µM
GI50 (SK-MEL-2 melanoma): 1.86 µM
TGI (SK-MEL-2 melanoma): 3.57 µM
GI50 (SK-MEL-28 melanoma): 1.7 µM
TGI (SK-MEL-28 melanoma): 3.07 µM
GI50 (SK-MEL-5 melanoma): 1.63 µM
TGI (SK-MEL-5 melanoma): 3 µM
GI50 (SN12C renal): 1.78 µM
TGI (SN12C renal): 3.6 µM
GI50 (SNB-19 CNS): 1.73 µM
TGI (SNB-19 CNS): 3.26 µM
GI50 (SNB-75 CNS): 1.35 µM
TGI (SNB-75 CNS): 2.66 µM
GI50 (SR leukemia): 2.59 µM
TGI (SR leukemia): > 100 µM
GI50 (SW-620 colon): 1.77 µM
TGI (SW-620 colon): 3.26 µM
GI50 (T-47D breast): 1.38 µM
TGI (T-47D breast): 3.93 µM
GI50 (TK-10 renal): 2.09 µM
TGI (TK-10 renal): 3.9 µM
GI50 (UACC-257 melanoma): 1.87 µM
TGI (UACC-257 melanoma): 3.41 µM
GI50 (UACC-62 melanoma): 1.69 µM
TGI (UACC-62 melanoma): 3.17 µM
GI50 (UO-31 renal): 1.33 µM
TGI (UO-31 renal): 2.69 µM

O=[N+]([O-])C(=C(Cl)Cl)/C(Cl)=C(\Cl)Br
outcome (A549 NSCLC): inactive
outcome (DU-145 prostate): inactive
outcome (HS 578T breast): inactive
outcome (OVCAR-5 ovarian): inactive
outcome (SF-295 CNS): inactive
outcome (SNB-19 CNS): inactive
outcome (UACC-62 melanoma): inactive

Source: PubChem BioAssay (NCI)
